The record followed here is PubChem BioAssay (NCI).

Test in all cases: growth of human tumour cells (NCI), 48 h
In experiment [1] the test system is DU-145 prostate.
In experiment [2] the test system is A549 NSCLC.
The test system of experiment [3] is MDA-MB-435.
The subject of experiment [4] is MDA-MB-231 breast.
The subject of experiment [5] is U251 CNS.
Experiment [6] relates to NCI-H23 lung.
The test system of experiment [7] is PC-3 prostate.
The subject of experiment [8] is HCC-2998 colon.
In experiment [9] the test system is TK-10 renal.
Experiment [10] concerns NCI-H522 lung.

“And” between values parts separate entries of the source, which are not always exact repeats. Equal values may be shown once.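 Results reflect a 48-hour exposure of cells in 96-well plates to compound at five concentrations. Here, GI50 denotes the concentration required for 50% inhibition of growth. TGI marks complete inhibition of growth.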 Some results are limits rather than exact numbers.

With `Cc1ccc(S(=O)(=O)N/N=C2\C=C[C@]3(CC2)C(=O)N(C)c2ccccc23)cc1`, the TGI in [1], in experiment [2], in experiment [3], in [4], in [5] and in experiment [6] was > 100 µM in each case. Further, the TGI in experiment [7] and in experiment [8] was > 100 µM throughout.

Regarding `COCN1C(=O)[C@@H]2CCCN2C(=O)c2cc([N+](=O)[O-])ccc21`, the TGI in [1], in experiment [9], in [2], in experiment [3], in [4] and in [5] was > 100 µM throughout. In addition, the TGI in experiment [10] was 44.6 µM; in experiment [6], > 100 µM; in experiment [7], > 100 µM.

`CC(=O)c1cccc(NC2C(N)C(NC(=O)N(C)C)(C(C)O)C(C)(O)C2(O)COC(=O)c2c(C)cccc2O)c1` (centres undefined): the TGI in [1] came out at 0.0202 µM; in experiment [9], 0.118 µM; in [2] it was 0.347 µM; in experiment [3], 0.0157 µM; in [4], 0.208 µM; in [5], 0.109 µM. The figures for the TGI in experiment [10] and in experiment [8] were 0.0641 µM and 0.00295 µM, respectively.

With `CC1(C)CC(=O)c2c(nc3ccc4ccccc4c3c2-c2ccc(NC(=O)CCCCC(=O)Nc3ccc(-c4c5c(nc6ccc7ccccc7c46)CC(C)(C)CC5=O)cc3)cc2)C1`, the TGI in experiment [1], in experiment [9], in experiment [2], in [3], in [4] and in [5] was > 100 µM in each case. Further, the TGI in experiment [6] and in experiment [7] was > 100 µM throughout.

For `CCN(CC)CCNc1ccc(C)c2sc3ccc(O)cc3c(=O)c12`, the TGI in experiment [9] was 9.95 µM; in experiment [2], 1.91 µM; in experiment [5], 2.44 µM; in experiment [10], 2.7 µM; in experiment [6] it was 14 µM; in experiment [8], 2.66 µM.

On to `Nc1c(C(=O)c2ccccc2)[nH]c(NCc2ccccc2)c1C(=S)Nc1ccccc1`, for which the TGI in experiment [1], in experiment [9], in experiment [2], in experiment [3], in [4] and in experiment [5] was > 100 µM in each case. In addition, the TGI in [10], in experiment [6] and in experiment [8] was > 100 µM throughout.

Turning to `COc1ccc2c(c1)c1cc(OC)ccc1n2CCCCOc1ccc(-c2c3ccccc3c(-c3ccc(OCCCCn4c5ccc(OC)cc5c5cc(OC)ccc54)cc3)c3ccccc23)cc1`, the TGI in experiment [9], in experiment [2], in [10] and in [8] was > 100 µM in each case.

As to `CC1OC(=O)c2ccccc2NC1=O` (centres undefined), the TGI in experiment [1], in [9], in [2], in experiment [3], in experiment [4] and in experiment [5] was > 100 µM each time. Moreover, the TGI in experiment [10], in [6] and in experiment [7] was > 100 µM in each case.

Take `O/N=C\c1cc(O)c(O)c(/C=N/O)c1`: the TGI in experiment [1], in [9], in [2], in experiment [3], in experiment [4] and in experiment [5] was > 100 µM throughout. Besides, the TGI in experiment [10] is 71.9 µM; in experiment [6] it was > 100 µM; in [7] it was > 100 µM.

As for `CCOC(=O)CCC(NC(=O)OCc1ccccc1)C(=O)NC(CCC(=O)OCC)C(=O)NC(CCC(=O)OCC)C(=O)NC(CCC(=O)OCC)C(=O)NC(CCC(=O)OCC)C(=O)OCC` (centres undefined), the TGI in [1], in experiment [9], in experiment [2], in [3], in experiment [5] and in experiment [10] was > 100 µM each time. Also, the TGI in [6] and in experiment [7] was > 100 µM throughout.

Turning to `C#CCOC(=O)c1ccccc1OC(C)=O`, the TGI in experiment [1], in experiment [9], in [3], in experiment [4], in experiment [5] and in [10] was > 100 µM in each case. For the same compound, the TGI in experiment [6] and in experiment [7] was > 100 µM each time.

In the case of `N#Cc1c(-c2ccc(Cl)cc2)c(C#N)c(=O)n(NS(=O)(=O)c2ccccc2)c1-c1ccccc1`, the TGI in experiment [9], in experiment [2], in experiment [3], in [4], in experiment [5] and in experiment [7] was > 25 µM in each case. Further, the TGI in [8] is > 25 µM.

Turning to `C/C(=N\Nc1ccc([N+](=O)[O-])cc1)C(=O)N(C)Nc1ccccc1`, the TGI in experiment [9], in experiment [2], in experiment [5], in [10], in [6] and in [8] was > 100 µM in each case.

Take `CC(=O)Oc1c(OC(C)=O)c(-c2ccc(O)c(O)c2)c(O)c(O)c1-c1ccc(O)cc1`: the TGI in experiment [2] was > 100 µM; in experiment [5], > 100 µM; in experiment [10], 45.2 µM and 33 µM; in [6], > 100 µM; in experiment [8], > 100 µM. The GI50 in [10] was 20.1 µM.

Consider `COc1ccc(C)cc1NC(=S)N/N=C/c1ccc(SC)cc1`, for which the TGI in experiment [1], in experiment [2], in experiment [3], in [10], in [6] and in experiment [7] was > 100 µM in each case.

Take `CSCCCCCCCCCCOc1ccc(C=C2C(=C(C#N)C#N)c3ccccc3C2=C(C#N)C#N)cc1`: the TGI is 28.9 µM in experiment [1]; 36.1 µM in experiment [9]; 32.9 µM in experiment [3]; 35.7 µM in experiment [4]; 31.2 µM in [5]; 38.2 µM in [10]. The results for the TGI in experiment [6] and in experiment [7] were 48.9 µM and 31.4 µM, respectively.

For the compound `Cc1ccc(/C=N/Nc2ncccn2)s1`, the TGI in experiment [9], in experiment [2], in [3], in experiment [4], in experiment [5] and in experiment [10] was > 100 µM in each case. For the same compound, the TGI in experiment [6], in experiment [7] and in [8] was > 100 µM each time.

Take `Cc1n[nH]c(=O)n1N=C(c1ccccc1)c1ccccc1`: the TGI in experiment [1], in experiment [9], in experiment [2], in experiment [3], in experiment [4] and in experiment [5] was > 100 µM in each case. Also, the TGI in [10], in [6] and in experiment [7] was > 100 µM throughout.

`CCN(CC)CCCNC(=O)Cc1ccccc1Nc1c(Cl)cccc1Cl`: the TGI was determined as 26.8 µM in [9]; 36.2 µM in [2]; 25.7 µM in experiment [5]; 32.2 µM in experiment [6]; 11.5 µM in experiment [8].

As for `CC(C)(C)/C(O)=C\c1nc2cc(C(F)(F)F)ccc2[nH]c1=O`, the TGI in experiment [1], in [9], in [2], in [3], in experiment [4] and in experiment [5] was > 100 µM throughout. The TGI in experiment [10], in [6] and in experiment [7] was > 100 µM throughout.

For `CC12ON=C(c3ccccc3)N1C=CN1C(c3ccccc3)=NOC12` (centres undefined), the TGI in experiment [1], in experiment [9], in experiment [2], in [4], in experiment [10] and in [6] was > 100 µM throughout. Moreover, the TGI in experiment [7] and in [8] was > 100 µM throughout.

For `CC(C)(C)C=C=C(C(C)(C)C)P(=O)(O)O`, the TGI in experiment [1], in experiment [9], in experiment [2], in [3], in [5] and in experiment [10] was > 100 µM in each case. Also, the TGI in experiment [6], in experiment [7] and in experiment [8] was > 100 µM each time.

Take `CSCCC(NC(c1ccccc1)c1ccccc1)[P+](=O)O` (centres undefined): the TGI in experiment [1], in experiment [9], in experiment [2], in experiment [3], in experiment [5] and in experiment [10] was > 100 µM in each case. For the same compound, the TGI in experiment [6] and in experiment [7] was > 100 µM throughout.

Take `COC(=O)C1=C(O)C(C(=O)OC)[C@]2(O)[C@H](C(=O)OC)[C@H]1C[C@@H](c1ccc(OC)cc1)[C@H]2C(=O)OC` (some centres undefined): the TGI is > 100 µM in experiment [9]; 62.8 µM in experiment [2]; 29 µM in experiment [3]; 75.3 µM in experiment [4]; 65.6 µM in experiment [5]; 17.7 µM in [10]. In addition, the TGI in experiment [6] was > 100 µM; in experiment [8] it was 37.8 µM.

Regarding `CC(C)[Si]1(C(C)C)OCC2OC(n3ccc(=O)[nH]c3=O)C(O)(CO)C2O[Si](C(C)C)(C(C)C)O1` (centres undefined), the TGI in [1] stood at 32.4 µM; in [9] it was 31.3 µM; in experiment [2], 27.9 µM; in [3] it was 31.6 µM; in experiment [4], 26.7 µM; in experiment [5] it was 30.1 µM. Further, the TGI in experiment [6] is 12.5 µM; in experiment [7] it was 25.9 µM.

Turning to `COc1cc(CC2c3cc(OC)c(OC)cc3CCN2C)c(Oc2cc3c(cc2OC)-c2c(OC)c(OC)c(OC)c4c2C(C3)N(C)CC4)cc1OC` (centres undefined), the TGI in experiment [9] came to 29.5 µM; in [2], 30.6 µM; in experiment [5], 26 µM; in experiment [10], 24.5 µM; in experiment [6], 34.9 µM; in [8] it was 13.7 µM.

As to `CCN1/C(=C/C(C)=C/c2sc3ccccc3[n+]2CC)Sc2ccccc21`, the TGI in experiment [9] amounted to 1.37 µM; in experiment [2] it was 1.42 µM; in experiment [6], 0.824 µM; in experiment [8], 0.876 µM.

In the case of `CCCc1c2c3ccccc3nc-2nc2ccccn12`, the TGI in experiment [1], in experiment [9], in experiment [2], in experiment [3], in experiment [4] and in [5] was > 100 µM throughout. Moreover, the TGI in experiment [10] was > 100 µM; in [6], 88.6 µM; in [7], > 100 µM.

On to `Nc1ccn(C2OC(COP(=O)(O)Oc3ccccc3)C(O)C2O)c(=O)n1` (centres undefined), for which the TGI in [2], in experiment [5], in experiment [10], in experiment [6] and in experiment [8] was > 100 µM throughout.

With `CNC(=O)CN1CC(=O)N(C)C(=O)C1`, the TGI in [9], in experiment [5], in [10], in [6] and in experiment [8] was > 100 µM in each case.

Take `C=C1C(=O)OC2/C=C(\C)C(O)/C=C\C(C)(O)CC(OC(=O)/C(C)=C/C)C12` (centres undefined): the TGI in experiment [9] was > 100 µM; in experiment [2] it was > 100 µM; in experiment [5] it was > 100 µM; in experiment [10] it was 26.2 µM; in experiment [6] it was > 100 µM; in experiment [8] it was > 100 µM.

For the compound `CCCCCCCCCN1CCC(=O)C(C(=O)OC)C1` (centres undefined), the TGI in experiment [1] worked out at 29.3 µM; in experiment [9], 31.4 µM; in experiment [2], 30.7 µM; in [3], 28.5 µM; in [10], 22 µM; in [6], 8.59 µM. The compound also displayed a TGI in experiment [8] of 33.8 µM.

As to `CC(=O)Nc1ccc(-c2nnc(SCC(=O)Nc3ccc(C)cc3)o2)cc1`, the TGI is 53.6 µM in [9]; > 100 µM in experiment [2]; 33.6 µM in experiment [5]; 33 µM in [10]; 29.6 µM in experiment [6].
